Patent publication US20060270634A1, “Acetal phosphate-derived LPA mimics, PPARgamma activators, and autotaxin inhibitors” (priority 2005, published 2006)
Read-outs that look alike come from different tables or passages of the source. Each block holds one compound with its values, some of them ahead of it.

Assays:
PPARγ = target: T1, PPARγ (Homo sapiens, UniProt P37231); assay: PPARγ activation, PPRE-Acox-Rluc reporter gene assay in CV1 cells; type: cell-based; settings: for PPARγ: Table 3; for PPARγ activation in words: FIG. 9: 10 μM, 20 h
T1 construct: expressed in transfected cells; host or cells: CV1 cells (African green monkey kidney)
T1 sequence (P37231 1-505): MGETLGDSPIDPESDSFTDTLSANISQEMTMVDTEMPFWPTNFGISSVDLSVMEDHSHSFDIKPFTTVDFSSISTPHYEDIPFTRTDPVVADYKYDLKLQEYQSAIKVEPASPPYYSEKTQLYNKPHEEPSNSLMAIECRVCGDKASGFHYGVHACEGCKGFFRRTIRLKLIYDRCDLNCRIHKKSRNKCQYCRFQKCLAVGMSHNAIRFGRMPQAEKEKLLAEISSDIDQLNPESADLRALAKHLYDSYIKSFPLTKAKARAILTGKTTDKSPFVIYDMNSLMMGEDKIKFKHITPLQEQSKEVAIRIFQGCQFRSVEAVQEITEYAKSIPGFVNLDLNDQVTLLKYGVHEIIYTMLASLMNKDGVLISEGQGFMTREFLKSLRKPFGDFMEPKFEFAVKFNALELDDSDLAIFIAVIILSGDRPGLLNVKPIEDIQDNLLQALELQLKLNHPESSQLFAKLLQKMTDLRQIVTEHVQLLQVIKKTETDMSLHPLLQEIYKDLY
Protocol: (§1) The biological effects of all synthesized compounds were testing using three high-throughput assays. First, intracellular calcium transients in rat hepatoma (RH777, an LPA receptor null cell) cell lines individually expressing either LPA1, LPA2, and LPA3 receptors were analyzed to evaluate compounds as agonists or antagonists. […] The PPRE-Acox-Rluc construct contains a renilla luciferase coding region, an acyl-CoA oxidase coding region, and a PPAR response element coding region. Third, inhibition of the lysophospholipase D autotoxin was determined using a previously described procedure.
PPARγ is a lipid-activated transcription factor that belongs to the nuclear hormone superfamily. The inventors examined the activity of all synthesized Darmstoff analogs as PPARγ activators in vitro in CV1 cells using a PPRE-Acox-Rluc reporter gene assay. Rosiglitazone, a known PPARγ agonist, was used as a positive control for comparison.
RH7777 cells, which lack LPA GPCR, were stably transfected with individual LPA1, LPA2 and LPA3 receptors and used for the in vitro screening.
Unlike the enantiospecific responses compounds at LPA GPCR by APA analogs, there was no stereoselectivity observed in PPARγ activation by these analogs.

[1] = target: lysophospholipase D (autotaxin, ATX) (Homo sapiens, UniProt Q13822); assay: Inhibition of lysophospholipase D autotaxin; type: biochemical; settings: Table 3
Protocol: as §1
LPA is liberated as the product of lysophosphatidylcholine hyrolysis by the lysophospholipase D, autotaxin (ATX). The inventors screened Darmstoff analogs for ATX inhibition. As indicated by the data, all tested analogs are capable of ATX inhibition independently of their ligand properties at LPA GPCR and PPARγ.

LPA2 = LPA2 (Homo sapiens, UniProt Q9HBW0); assay: Ca2+ transients in RH7777 cells expressing LPA2 (agonist / inhibition of LPA response); settings: for LPA2 effect in words: *transient
LPA3 [2] = target: T2, LPA3 (Homo sapiens, UniProt Q9UBY5); assay: Ca2+ transients in RH7777 cells expressing LPA3 (agonist / inhibition of LPA response); settings: for EC50: read-out: LPA3 EC50; for IC50: read-out: LPA3 IC50
T2 sequence (Q9UBY5 1-353): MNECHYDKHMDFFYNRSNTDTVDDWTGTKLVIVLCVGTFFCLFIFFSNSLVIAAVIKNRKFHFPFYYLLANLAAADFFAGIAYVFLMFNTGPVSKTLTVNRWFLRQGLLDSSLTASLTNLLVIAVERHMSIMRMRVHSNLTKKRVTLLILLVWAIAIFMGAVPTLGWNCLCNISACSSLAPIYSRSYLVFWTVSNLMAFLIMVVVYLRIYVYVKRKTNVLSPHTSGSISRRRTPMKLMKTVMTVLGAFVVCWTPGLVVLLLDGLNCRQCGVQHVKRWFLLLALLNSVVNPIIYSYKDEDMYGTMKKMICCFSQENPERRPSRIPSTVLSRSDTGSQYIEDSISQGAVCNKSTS

PC3 cells = assay: Calcium mobilization response in PC3 cells; type: cell-based
LPA1 [3] = target: T3, LPA1 (Homo sapiens, UniProt Q92633); assay: Ca2+ transients in RH7777 cells expressing LPA1 (agonist / inhibition of LPA response)
LPA1 [4] = target: T3, LPA1; set-up: expressed in transfected cells; host or cells: RH7777 rat hepatoma cells; settings: cited from earlier work
LPA3 [5] = target: T2, LPA3; set-up: expressed in transfected cells; host or cells: RH7777 rat hepatoma cells; settings: cited from earlier work
[6] = RH-LPA2 cells IC50, inhibition of 200 nM LPA response
[7] = RH-LPA2 cells IC50, inhibition of 300 nM LPA response
[8] = Table 3, maximal efficacy of drug/maximal efficacy of LPA 18:1

T3 sequence (Q92633 whole entry, species assumed): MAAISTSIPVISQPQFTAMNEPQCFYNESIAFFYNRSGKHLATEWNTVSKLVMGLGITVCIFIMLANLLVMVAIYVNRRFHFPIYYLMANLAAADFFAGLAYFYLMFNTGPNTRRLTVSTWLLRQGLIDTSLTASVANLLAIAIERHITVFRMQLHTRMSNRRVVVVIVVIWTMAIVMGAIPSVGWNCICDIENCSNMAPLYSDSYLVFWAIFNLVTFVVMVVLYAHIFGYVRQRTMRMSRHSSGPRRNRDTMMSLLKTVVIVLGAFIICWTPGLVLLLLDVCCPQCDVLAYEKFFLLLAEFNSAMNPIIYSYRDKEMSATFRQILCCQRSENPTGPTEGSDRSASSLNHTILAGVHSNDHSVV
Chain of LPA2 (Q9HBW0 whole entry, species assumed): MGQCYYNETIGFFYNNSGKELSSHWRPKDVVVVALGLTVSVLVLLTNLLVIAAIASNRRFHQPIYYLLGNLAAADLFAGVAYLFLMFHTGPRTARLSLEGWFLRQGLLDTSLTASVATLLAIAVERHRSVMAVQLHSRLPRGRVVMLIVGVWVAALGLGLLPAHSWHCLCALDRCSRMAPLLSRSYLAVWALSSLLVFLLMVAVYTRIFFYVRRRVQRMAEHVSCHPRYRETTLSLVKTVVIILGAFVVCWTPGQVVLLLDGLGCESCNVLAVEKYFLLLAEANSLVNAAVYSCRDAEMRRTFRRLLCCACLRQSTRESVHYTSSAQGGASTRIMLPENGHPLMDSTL

Compound: CCCCCCCCC=CCCCCCCCC1OCC(COP(=O)([O-])O)O1.[K+] (mixture of isomers) [Analog 13]
- PPARγ (PPARγ): Agonist
- ATX (% inhib.) [1]: 30%
- IC50 [1]: 141 nM
- LPA2 agonist/antagonist activity in words (LPA2): inhibited LPA1-3 receptors
- IC50 (LPA2; read-out: LPA2 IC50, Table 3): > 30000 nM
- LPA3 agonist/antagonist activity in words (LPA3 [2]): LPA1/3 antagonist activity
- Ki (LPA3 [2]; read-out: LPA3 (Ki), Table 3): 548 nM
- EC50 (LPA3 [2]; Table 3): > 30000 nM
- IC50 (LPA3 [2]; Table 3): 527 nM

- PPARγ (PPARγ): Agonist
- ATX (% inhib.) [1]: 26%
- IC50 [1]: 232 nM
- IC50 (PC3 cells; Homo sapiens, PC-3, inhibition of 100 nM LPA response, read-out: PC3 cells IC50): 1860 nM
- IC50 (PC3 cells; Homo sapiens, PC-3, inhibition of 300 nM LPA response, read-out: PC3 cells IC50): 2110 nM
- Ki (LPA1 [3]): 652 nM
- LPA1 agonist/antagonist activity in words (LPA1 [3]): pantagonist
- IC50 (LPA1 [3]; LPA1 IC50, 200 nM LPA): 1110 nM
- IC50 (LPA1 [3]; LPA1 IC50, 300 nM LPA): 2150 nM
- IC50 (LPA1 [3]; LPA1 IC50, Table 3): 1110 nM
- IC50 (LPA1 [3]; RH-LPA1 cells IC50, inhibition of 200 nM LPA response): 1110 nM
- IC50 (LPA1 [3]; RH-LPA1 cells IC50, inhibition of 300 nM LPA response): 2150 nM
- EC50 (LPA1 [3]; read-out: LPA1 EC50, Table 3): > 30000 nM
- LPA2 agonist/antagonist activity in words (LPA2): pantagonist
- EC50 (LPA2; LPA2 EC50, *transient): 1180 nM
- EC50 (LPA2; LPA2 EC50, Table 3): > 30000 nM
- IC50 (LPA2; [6]): 397 nM
- IC50 (LPA2; [7]): 657 nM
- Ki (LPA3 [2]): 681 nM
- LPA3 agonist/antagonist activity in words (LPA3 [2]): pantagonist
- EC50 (LPA3 [2]; Table 3): > 30000 nM
- IC50 (LPA3 [2]; 200 nM LPA): 2870 nM
- IC50 (LPA3 [2]; Table 3): 2870 nM
Compound: CCCCCCCCCCCCC1OCC(COP(=O)(O)O)O1 (centres unmarked) [Analog 12]

Compound: CCCCCCCC/C=C\CCCCCCCC1OCC(COP(=O)([O-])O)O1.[K+] (centres unmarked) [Analog 13, 2-Heptadec-8-enyl-(1,3)dioxolan-4yl methyl dipotassium phosphate]
- IC50 (PC3 cells; Homo sapiens, PC-3, read-out: PC3 cells IC50): 1500 nM
- IC50 (PC3 cells; read-out: PC3 cells IC50, listed as 18:1 Δ 9 acetal phosphate): 1040 nM
- LPA2 effect in words (LPA2): full agonist
- EC50 (LPA2; LPA2 EC50, *transient): 68 nM
- IC50 (LPA2; [6]): 460 nM
- IC50 (LPA2; [7]): 777 nM
- IC50 (LPA3 [2]; 200 nM LPA): 527 nM

Compound: CCCCCCCC/C=C\CCCCCCCC1OCC(COP([O-])(O)=S)O1.[K+] (centres unmarked) [Analog 14, 2-Heptadec-8-enyl-(1,3)dioxolan-4yl methyldipotassium thiophosphate]
- EC50 (PC3 cells; Homo sapiens, PC-3, compound alone): 1370 nM
- Emax (PC3 cells; Homo sapiens, PC-3, of the LPA-alone max. response, read-out: PC3 cells maximal response): ~86%
- PC3 cells effect of compound alone (PC3 cells; compound alone): stimulatory effect. Its maximal
- EC50 (LPA1 [3]; LPA1 EC50): 981 nM
- Emax (LPA1 [3]; RH7777, read-out: RH-LPA1 cells maximal response): ~50%
- EC50 (LPA1 [3]; RH-LPA1 cells EC50, compound alone): 2170 nM
- LPA1 effect in words (LPA1 [3]; Tables 2, 4, 6): Partial agonist
- RH-LPA1 cells effect of compound alone (LPA1 [3]; compound alone): stimulatory effect. Its maximal
- LPA2 effect in words (LPA2): almost full agonist
- EC50 (LPA2; LPA2 EC50, *transient): 34 nM
- Emax (LPA2; RH7777, read-out: RH-LPA2 cells maximal response): ~74%
- EC50 (LPA2; RH-LPA2 cells EC50, compound alone): 639 nM
- RH-LPA2 cells effect of compound alone (LPA2; compound alone): stimulatory effect. Its maximal
- LPA3 effect in words (LPA3 [2]; Tables 2, 4, 6): Partial agonist
- EC50 (LPA3 [2]): 639 nM

Compound: CCCCCCCCC=CCCCCCCCC1OCC(COP(=O)([O-])O)O1.[K+] (centres unmarked) [Analog 37]
- PPARγ (PPARγ): Agonist
- ATX (% inhib.) [1]: 46%
- IC50 [1]: 238 nM
- EC50 (LPA2; read-out: LPA2 EC50, Table 3): > 10000 nM
- IC50 (LPA2; read-out: LPA2 IC50, Table 3): > 30000 nM
- LPA3 agonist/antagonist activity in words (LPA3 [2]): LPA3 antagonists
- Ki (LPA3 [2]; read-out: LPA3 (Ki), Table 3): 241 nM
- EC50 (LPA3 [2]; Table 3): > 30000 nM
- IC50 (LPA3 [2]; Table 3): 484 nM

Compound: CCCCCCCCC=CCCCCCCCC1OCC(COP([O-])(O)=S)O1.[K+] (centres unmarked) [Analog 38]
- PPARγ (PPARγ): Agonist
- ATX (% inhib.) [1]: 64%
- IC50 [1]: 363 nM
- LPA1 agonist/antagonist activity in words (LPA1 [3]): pan-agonists
- LPA1 (Emax) (LPA1 [3]; [8]): 68%
- EC50 (LPA1 [3]; read-out: LPA1 EC50, Table 3): 2260 nM
- IC50 (LPA1 [3]; read-out: LPA1 IC50, Table 3): > 30000 nM
- LPA2 agonist/antagonist activity in words (LPA2): pan-agonists
- LPA2 (Emax) (LPA2; [8]): 72%
- EC50 (LPA2; read-out: LPA2 EC50, Table 3): 1540 nM
- IC50 (LPA2; read-out: LPA2 IC50, Table 3): > 30000 nM
- LPA3 agonist/antagonist activity in words (LPA3 [2]): full agonists
- LPA3 (Emax) (LPA3 [2]; [8]): 102%
- EC50 (LPA3 [2]; Table 3): 204 nM
- IC50 (LPA3 [2]; Table 3): > 30000 nM

- PPARγ activation in words (PPARγ): agonist of PPARγ
- LPA1 agonist/antagonist activity in words (LPA1 [3]): no effect
- LPA2 agonist/antagonist activity in words (LPA2): no effect
- LPA3 agonist/antagonist activity in words (LPA3 [2]): selective LPA3 antagonist
- Ki (LPA3 [2]; read-out: LPA3 (Ki), Table 5): 196 nM
- IC50 (LPA3 [2]; Table 5): 414 nM
Compound: CCCCCCCCNC(=O)[C@H](COP(=O)(O)O)NC(=O)CCCCCCC [Cpd 19a]

- PPARγ activation in words (PPARγ): no effect
- LPA1 agonist/antagonist activity in words (LPA1 [3]): no effect
- LPA2 agonist/antagonist activity in words (LPA2): no effect
- LPA3 agonist/antagonist activity in words (LPA3 [2]): true LPA3 receptor specific antagonist
- Ki (LPA3 [2]; read-out: LPA3 (Ki), Table 5): 489 nM
- IC50 (LPA3 [2]; Table 5): 935 nM
Compound: CCCCCCCCNC(=O)[C@@H](COP(=O)(O)O)NC(=O)CCCCCCC [Cpd 19b]

Compound: dioctanoyl glycerol pyrophosphate [DGPP 8:0]
- LPA1 activity in words, previously reported (LPA1 [4]): antagonists
- LPA3 activity in words, previously reported (LPA3 [5]): antagonists
